Measured values as given in US20140023713A1, “CLATHRATE COMPLEX OF CYCLODEXTRIN OR ARABINOGALACTAN WITH 9-PHENYL-SYM-OCTA-HYDROSELENOXANTENE” (priority 2011, published 2014).
Entries after “also recorded” stand apart in the source; their conditions may differ. Where two headings read alike, the source gives them in different places.

Experiments:
hematopoietic stem cells = assay: cloning method of hematopoietic stem cells in the spleens of irradiated mice (spleen colony formation by donor bone marrow cells, radioprotection); format: in vivo
Description: The study of radioprotective and cytoprotective properties of compound 1 and the complex compound 2 (ratio 1:3) by cloning method of hematopoietic stem cells in the spleens of irradiated mice.
1) Formation of spleen colonies by bone marrow cells of mice that received Compound 2 multiple times prior to irradiation at a dose of 1.5 Gy. Unlike compound 1, the complex form of compound 2 is water-soluble.
Compound 2 was administered orally to mice-donors of bone marrow at doses of 5 mg/kg and 2 mg/kg in 0.2 ml physiological solution for 5 days. […] Control mice received 0.2 ml of physiological solution for 5 days. 7 days after the last injection, mice were irradiated (1.5 Gy at installation “Luch-1”). 15 minutes later the animals were sacrificed, a bone marrow cell suspension was prepared and injected to lethally irradiated recipient mice for determination of the colony-forming ability.
2) Formation of spleen colonies by bone marrow cells of mice that received Compound 1, suspended in a starch gel, multiple times prior to irradiation at a dose of 1.5 Gy.
In the second series of experiments using the same experimental scheme and similar doses, the Compound 1 suspension was prepared in 2% starch gel. 90 female mice (CBA×C57B1/6) F1 were used in this study: 18 donors and 72 recipients.

CFU-C-8 = format: in vivo, mice
Description: A study on cytoprotective effect of the compound 1 was conducted.

SMILES | Quantity of colonies on 105 cells of bone marrow M ± m (hematopoietic stem cells; Compound 1 2 mg/kg + Starch gel 2%, no irradiation, 2 mg/kg) | Quantity of colonies on 105 cells of bone marrow M ± m (hematopoietic stem cells; Compound 1 2 mg/kg + Starch gel 2%, no irradiation, listed as compound 1, 2 mg/kg) | Quantity of colonies on 105 cells of bone marrow M ± m (hematopoietic stem cells; Compound 1 2 mg/kg + Starch gel 2%, then 1.5 Gy irradiation) | Quantity of colonies on 105 cells of bone marrow M ± m (hematopoietic stem cells; Compound 1 5 mg/kg + Starch gel 2%, no irradiation, 5 mg/kg) | Quantity of colonies on 105 cells of bone marrow M ± m (hematopoietic stem cells; Compound 1 5 mg/kg + Starch gel 2%, no irradiation, listed as compound 1, 5 mg/kg) | Quantity of colonies on 105 cells of bone marrow M ± m (hematopoietic stem cells; Compound 1 5 mg/kg + Starch gel 2%, then 1.5 Gy irradiation) | adaptive response of hematopoietic stem cells to irradiation / radioprotective effect (in words) (hematopoietic stem cells; treatment for 5 days prior to irradiation 1.5 Gy, both doses (5 and 2 mg/kg)) | CFU-C-8 Quantity on 10^5 bone marrow cells of donors (CFU-C-8; Compound 1 5 mg/kg 7 days prior to single Cisplatin 5 mg/kg) | CFU-C-8 Quantity on 10^5 bone marrow cells of donors (CFU-C-8; Compound 1 5 mg/kg, no Cisplatin) | adaptive response of CFU-S-8 to cisplatin (in words) (CFU-C-8; administered 7 days prior to a single injection of cisplatin) | CFU-C-8 Quantity on 10^5 bone marrow cells of donors (CFU-C-8; mouse, in vivo)
c1ccc(C2C3=C(CCCC3)[Se]C3=C2CCCC3)cc1 [Compound 1, 9-phenyl-sym-octahydroselenoxanthene] | 24 ± 1.3 | statistically significant increase in the number of colonies | 9.1 ± 0.3 | 28.7 ± 1.1 | statistically significant increase in the number of colonies | 9.5 ± 0.8 | absent; also recorded: does not provide the radioprotective effect | 9.6 ± 0.3 | 12.6 ± 0.6 | distinct adaptive response | 
N.N.[Cl][Pt][Cl] [Cisplatin, reference compound] |  |  |  |  |  |  |  |  |  |  | 6.4 ± 0.6
